Measured values reported in PubChem BioAssay (NCI).
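48-hour exposure; five concentrations; linearly interpolated endpoints. Here, GI50 denotes the concentration required for 50% inhibition of growth. The concentration for full growth arrest is given as TGI.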

Columns and labels:
Experiment in all cases: DTP human tumour cell line panel, 48 h
[1] = test system: LOX IMVI melanoma
[2] = test system: A498 renal
[3] = test system: U251 CNS
[4] = test system: OVCAR-8 ovarian
[5] = test system: NCI-H23 lung
[6] = test system: OVCAR-4 ovarian
[7] = test system: HOP-18 NSCLC
[8] = test system: CAKI-1 renal
[9] = test system: SK-MEL-2 melanoma
[10] = test system: UO-31 renal
[11] = test system: SF-268 CNS
[12] = test system: NCI-H522 lung
[13] = test system: SW-620 colon
[14] = test system: 786-0 renal
[15] = test system: LXFL 529 NSCLC
[16] = test system: CCRF-CEM leukemia
[17] = test system: DLD-1 colon
[18] = test system: HCC-2998 colon
[19] = test system: TK-10 renal
[20] = test system: SK-MEL-28 melanoma
[21] = test system: SK-MEL-5 melanoma
[22] = test system: M14 melanoma
[23] = test system: NCI-H460 lung
[24] = test system: M19-MEL melanoma
[25] = test system: HL-60(TB) leukemia
[26] = test system: HCT-15 colon
[27] = test system: MOLT-4 leukemia
[28] = test system: HOP-62 NSCLC
[29] = test system: HOP-92 NSCLC
[30] = test system: DMS 273 small cell lung
[31] = test system: A549 NSCLC
[32] = test system: RPMI-8226 leukemia
[33] = test system: SNB-19 CNS
[34] = test system: SNB-75 CNS
[35] = test system: HT29 colon
[36] = test system: SN12C renal
[37] = test system: UACC-62 melanoma
[38] = test system: K-562 leukemia
[39] = test system: OVCAR-5 ovarian
[40] = test system: OVCAR-3 ovarian
[41] = test system: KM12 colon
[42] = test system: SF-539 CNS
[43] = test system: DMS 114 small cell lung
[44] = test system: KM20L2 colon
[45] = test system: RXF 393 renal
[46] = test system: IGROV1 ovarian
[47] = test system: SF-295 CNS
[48] = test system: MALME-3M melanoma
[49] = test system: HCT-116 colon
[50] = test system: ACHN renal
[51] = test system: COLO 205 colon
[52] = test system: EKVX NSCLC
[53] = test system: SNB-78 CNS
[54] = test system: NCI-H226 lung
[55] = test system: SR leukemia
[56] = test system: MDA-N
[57] = test system: T-47D breast
[58] = test system: SK-OV-3 ovarian
[59] = test system: DU-145 prostate
[60] = test system: BT-549 breast
[61] = test system: HS 578T breast
[62] = test system: MDA-MB-231 breast
[63] = test system: MCF7 breast
[64] = test system: NCI/ADR-RES ovarian
[65] = test system: MDA-MB-435
[66] = test system: PC-3 prostate
[67] = test system: UACC-257 melanoma

`NC1=NS(=O)(=O)Nc2nc(-c3ccc([N+](=O)[O-])o3)[nH]c21` was tested, and the TGI [1] was 29.4 µM, the TGI [2] was greater than 100 µM and the TGI [3] was 31.7 µM. For the same compound, the TGI [4] was 89.3 µM, the TGI [5] was 39.4 µM and the TGI [6] was 31.3 µM. It also gave a TGI [7] of 30.3 µM, a TGI [8] of 35.7 µM and a TGI [9] of 30.7 µM. It also gave a TGI [10] of 36.5 µM, a TGI [11] of 38.7 µM and a TGI [12] of 33.4 µM. For the same compound, the TGI [13] was 35.4 µM, the TGI [14] was 29 µM and the TGI [15] was 25.7 µM. It also gave a TGI [16] of 16.9 µM, a TGI [17] of 32 µM and a TGI [18] of 32.2 µM. It also gave a TGI [19] of 33 µM, a TGI [20] of 30.1 µM and a TGI [21] of 33.4 µM. For the same compound, the TGI [22] was 28.4 µM, the TGI [23] was 44 µM and the TGI [24] was 32.4 µM. For the same compound, the TGI [25] was 4.93 µM, the TGI [26] was 44.1 µM and the TGI [27] was 41 µM. The TGI [28] was 32.4 µM, the TGI [29] was 27.1 µM and the TGI [30] was 38.7 µM. The TGI [31] was greater than 100 µM, the TGI [32] was 46.7 µM and the TGI [33] was 35.9 µM. The TGI [34] was 30.3 µM, the TGI [35] was 42.4 µM and the TGI [36] was 36.4 µM. The TGI [37] was 30 µM, the TGI [38] was 22.9 µM and the TGI [39] was 35 µM. The TGI [40] was 52.8 µM, the TGI [41] was 36.1 µM and the TGI [42] was 31.6 µM. It also gave a TGI [43] of 34 µM, a TGI [44] of 58.6 µM and a TGI [45] of 25.5 µM. The TGI [46] was 31.5 µM, the TGI [47] was 29.8 µM and the TGI [48] was 30.6 µM. It also gave a TGI [49] of 17.7 µM and a TGI [50] of 30.5 µM.

`COc1cccc(C2CC(C)=Nc3c(ccc4c3C(=O)c3ccccc3C4=O)N2)c1O` (centres undefined) showed a TGI [2] greater than 100 µM, a TGI [3] greater than 100 µM and a TGI [51] greater than 100 µM. For the same compound, the TGI [4] was greater than 100 µM, the TGI [5] was greater than 100 µM and the TGI [10] was greater than 100 µM. It also gave a TGI [13] greater than 100 µM, a TGI [14] greater than 100 µM and a TGI [15] greater than 100 µM. The TGI [52] was greater than 100 µM, the TGI [17] was greater than 100 µM and the TGI [18] was greater than 100 µM. It also gave a TGI [53] greater than 100 µM, a TGI [54] greater than 100 µM and a TGI [22] greater than 100 µM. For the same compound, the TGI [23] was greater than 100 µM, the TGI [24] was greater than 100 µM and the TGI [25] was greater than 100 µM. It also gave a TGI [26] greater than 100 µM, a TGI [28] greater than 100 µM and a TGI [29] greater than 100 µM. For the same compound, the TGI [31] was greater than 100 µM, the TGI [32] was greater than 100 µM and the TGI [33] was greater than 100 µM. The TGI [34] was greater than 100 µM, the TGI [35] was greater than 100 µM and the TGI [36] was greater than 100 µM. For the same compound, the TGI [37] was greater than 100 µM, the TGI [38] was greater than 100 µM and the TGI [39] was greater than 100 µM. The TGI [40] was 95.1 µM, the TGI [41] was greater than 100 µM and the TGI [43] was greater than 100 µM. The TGI [44] was greater than 100 µM, the TGI [46] was greater than 100 µM and the TGI [48] was greater than 100 µM. For the same compound, the TGI [49] was greater than 100 µM and the TGI [50] was greater than 100 µM.

`CCOC(=O)/C=C(\C(=O)OCC)n1cc(C)c(=O)n(Cc2cnnn2CCCCOC(C)=O)c1=O` was tested, and the TGI [1] was 18.9 µM, the TGI [2] was 37.5 µM and the TGI [3] was 49.2 µM. The TGI [55] was 5.86 µM, the TGI [4] was 15.6 µM and the TGI [5] was 36.8 µM. The TGI [6] was 58 µM, the TGI [8] was 8.73 µM and the TGI [9] was 53 µM. It also gave a TGI [10] of 30 µM, a TGI [56] of 55.8 µM and a TGI [57] greater than 51 µM. For the same compound, the TGI [11] was 54.1 µM, the TGI [12] was 3.33 µM and the TGI [58] was greater than 92.4 µM. For the same compound, the TGI [13] was greater than 38.4 µM, the TGI [59] was greater than 55.8 µM and the TGI [14] was 28 µM. It also gave a TGI [52] of 25.2 µM, a TGI [60] of 22.6 µM and a GI50 [16] of 1.32 µM. The TGI [16] was 4.71 µM, the TGI [18] was 43.9 µM and the TGI [19] was 13.7 µM. The TGI [20] was 25.1 µM, the TGI [54] was 30.4 µM and the TGI [21] was greater than 52.2 µM. The TGI [22] was 86.2 µM, the TGI [23] was 65.7 µM and the TGI [61] was greater than 66.4 µM. It also gave a TGI [62] of 50.2 µM, a TGI [63] of 21.5 µM and a TGI [25] of 6.73 µM. The TGI [26] was greater than 25.2 µM, the TGI [27] was greater than 25.6 µM and the TGI [28] was greater than 68.1 µM. For the same compound, the TGI [29] was 4.83 µM, the TGI [31] was 60.7 µM and the TGI [32] was greater than 26.7 µM. The TGI [64] was 35.8 µM, the TGI [33] was greater than 66.5 µM and the TGI [34] was 38.3 µM. For the same compound, the TGI [35] was 21.3 µM, the TGI [36] was 39.3 µM and the TGI [37] was 31.7 µM. It also gave a TGI [38] greater than 35.9 µM, a TGI [65] of 26.1 µM and a TGI [39] of 39.5 µM. For the same compound, the TGI [66] was greater than 71.3 µM, the TGI [40] was 39.1 µM and the TGI [41] was 34.4 µM. It also gave a TGI [42] of 5.66 µM, a TGI [67] of 31.7 µM and a TGI [45] of 9.1 µM. It also gave a TGI [46] of 28.1 µM, a TGI [47] greater than 76 µM and a TGI [48] of 3.79 µM. For the same compound, the TGI [49] was 22.7 µM and the TGI [50] was 4.83 µM.

For `CC(=O)c1ccc2c3c1[C@@H]1O[C@@H]1c1cccc(c1-3)[C@@H]1O[C@H]21`, the GI50 [1] was 2.6 µM, the TGI [1] was 6.21 µM and the TGI [2] was greater than 85.8 µM. For the same compound, the TGI [3] was 19.3 µM, the TGI [55] was greater than 100 µM and the TGI [51] was 28.2 µM. For the same compound, the TGI [4] was 18.1 µM, the TGI [5] was 23.3 µM and the TGI [6] was 27.3 µM. For the same compound, the TGI [8] was 15 µM, the TGI [9] was greater than 57.1 µM and the TGI [10] was 30.2 µM. For the same compound, the TGI [56] was 39.9 µM, the TGI [57] was 23.7 µM and the TGI [11] was 27.4 µM. It also gave a TGI [12] of 13 µM, a TGI [58] of 76.1 µM and a TGI [13] of 7.99 µM. For the same compound, the TGI [59] was 23.2 µM, the TGI [14] was 24.9 µM and the TGI [52] was 39.5 µM. It also gave a TGI [60] of 35.1 µM, a TGI [16] greater than 100 µM and a TGI [19] greater than 77.1 µM. For the same compound, the TGI [20] was 13 µM, the TGI [54] was greater than 95.1 µM and the TGI [21] was 26 µM. For the same compound, the TGI [22] was 22.3 µM, the TGI [61] was 70.7 µM and the TGI [62] was 42.9 µM. It also gave a TGI [63] greater than 40.1 µM, a TGI [25] of 35 µM and a TGI [26] of 12.5 µM. It also gave a TGI [27] greater than 100 µM, a TGI [28] of 36.6 µM and a TGI [29] of 29.7 µM. It also gave a TGI [31] of 37.4 µM, a TGI [32] greater than 100 µM and a TGI [64] greater than 74.6 µM. It also gave a TGI [33] greater than 60.9 µM, a TGI [34] of 34.5 µM and a TGI [35] greater than 27.9 µM. For the same compound, the TGI [36] was 23.9 µM, the TGI [37] was 31.1 µM and the TGI [38] was greater than 100 µM. It also gave a TGI [65] of 25.7 µM, a TGI [39] of 34.7 µM and a TGI [66] greater than 52.3 µM. The TGI [40] was 30.4 µM, the TGI [41] was 21.4 µM and the TGI [67] was greater than 60.2 µM. It also gave a TGI [45] of 25.8 µM, a TGI [46] of 2.44 µM and a TGI [47] of 38.3 µM. The TGI [48] was 20.3 µM, the TGI [49] was 13.9 µM and the TGI [50] was 37.4 µM.
